Test results from ChEMBL document CHEMBL3091436, “4-Bicyclic heteroaryl-piperidine derivatives as potent, orally bioavailable Stearoyl-CoA desaturase-1 (SCD1) inhibitors. Part 1: urea-based analogs” (Bioorg Med Chem Lett, 2013).
pIC50: −log10 of the molar value. Values belong to the compound of their own block, whether it stands above or below them.

How the values were obtained:
[1] = target: T1, Acyl-CoA desaturase 1 (Rattus norvegicus) (UniProt P07308); experiment: Inhibition of SCD1 in Sprague-Dawley rat liver microsomes using Stearoyl-[9,10-3H]-CoA as substrate assessed as [3H2O] generation at 1 uM
T1 sequence (whole entry): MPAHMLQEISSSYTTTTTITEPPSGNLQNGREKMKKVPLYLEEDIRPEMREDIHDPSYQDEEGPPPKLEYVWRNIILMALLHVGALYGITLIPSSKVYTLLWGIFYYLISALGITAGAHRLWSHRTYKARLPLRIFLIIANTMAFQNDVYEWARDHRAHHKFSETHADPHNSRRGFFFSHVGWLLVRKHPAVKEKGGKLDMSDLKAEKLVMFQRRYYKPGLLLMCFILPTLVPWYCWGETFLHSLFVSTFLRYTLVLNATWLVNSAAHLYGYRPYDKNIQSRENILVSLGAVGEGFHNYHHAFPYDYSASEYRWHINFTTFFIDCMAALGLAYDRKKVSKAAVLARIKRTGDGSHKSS

[2] = target: T2, Stearoyl-CoA desaturase (Homo sapiens) (UniProt O00767); experiment: Inhibition of SCD1 in human A431 cells assessed as conversion of 13C-palmitic acid to 13C-palmitoleic acid after 4 hrs by LC/MS analysis; assay type: cell-based; conditions: A-431
T2 sequence (whole entry): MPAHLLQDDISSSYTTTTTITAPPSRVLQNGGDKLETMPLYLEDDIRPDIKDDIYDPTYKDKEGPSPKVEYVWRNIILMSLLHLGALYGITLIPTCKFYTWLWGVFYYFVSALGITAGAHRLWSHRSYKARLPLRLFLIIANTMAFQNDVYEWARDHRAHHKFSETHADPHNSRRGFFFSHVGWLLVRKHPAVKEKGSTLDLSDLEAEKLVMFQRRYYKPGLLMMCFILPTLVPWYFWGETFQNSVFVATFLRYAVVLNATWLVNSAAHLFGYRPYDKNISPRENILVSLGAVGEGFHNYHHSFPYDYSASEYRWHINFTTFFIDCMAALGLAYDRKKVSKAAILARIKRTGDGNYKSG

Acyl-CoA desaturase 1 = target: T3, Acyl-CoA desaturase 1 (Rattus norvegicus, UniProt P07308); experiment: Inhibition of SCD1 in Sprague-Dawley rat liver microsomes using Stearoyl-[9,10-3H]-CoA as substrate assessed as [3H2O] generation
T3 sequence (P07308 whole entry): T1 sequence (whole entry)

[3] = AUC (24 hrs) in rat at 2 mg/kg, iv; assay type: ADME, organism-based; design: time < 24 hr, dose 2 mg/kg, route intravenous; conditions: plasma
Mus musculus [4] = experiment: Hepatotoxicity in DIO C57BL/6 mouse assessed as plasma ALT level at 30 mg/kg, po bid after 10 days (reference value: 58 +/- 5 U/L); assay type: toxicity, organism-based; design: dose 30 mg/kg, route oral; conditions: in vivo, 240 h
[5] = Half life in DIO mouse at 30 mg/kg, po; assay type: ADME, organism-based; design: dose 30 mg/kg, route oral; conditions: in vivo
Mus musculus [6] = experiment: Hepatotoxicity in DIO C57BL/6 mouse assessed as plasma AST level at 30 mg/kg, po bid after 10 days (reference value: 99 +/- 9 U/L); assay type: toxicity, organism-based; design: dose 30 mg/kg, route oral; conditions: in vivo, 240 h
[7] = Oral bioavailability in rat at 10 mg/kg; assay type: ADME, organism-based; conditions: in vivo
Mus musculus [8] = experiment: Antiobesity activity in DIO C57BL/6 mouse assessed as decrease in body weight gain at 30 mg/kg, po bid (reference value: 2.06 +/- 0.33 g); assay type: functional
[9] = Cmax in rat at 10 mg/kg, po; assay type: ADME, organism-based; design: dose 10 mg/kg, route oral; conditions: in vivo
[10] = Volume of distribution at steady state in rat at 2 mg/kg, iv; assay type: ADME, organism-based; design: dose 2 mg/kg, route intravenous; conditions: in vivo, read-out: Vdss
Mus musculus [11] = experiment: Hepatotoxicity in DIO C57BL/6 mouse assessed as plasma ALT level at 30 mg/kg, po qd after 10 days (reference value: 58 +/- 5 U/L); assay type: toxicity, organism-based; design: dose 30 mg/kg, route oral; conditions: in vivo, 240 h
Mus musculus [12] = experiment: Hepatotoxicity in DIO C57BL/6 mouse assessed as plasma AST level at 30 mg/kg, po qd after 10 days (reference value: 99 +/- 9 U/L); assay type: toxicity, organism-based; design: dose 30 mg/kg, route oral; conditions: in vivo, 240 h
[13] = Cmax in rat at 2 mg/kg, iv; assay type: ADME, organism-based; design: dose 2 mg/kg, route intravenous; conditions: in vivo
Mus musculus [14] = experiment: Antiobesity activity in DIO C57BL/6 mouse assessed as decrease in body weight gain at 10 mg/kg, po qd (reference value: 2.06 +/- 0.33 g); assay type: functional
[15] = AUC (24 hrs) in rat at 10 mg/kg, po; assay type: ADME, organism-based; design: time < 24 hr, dose 10 mg/kg, route oral; conditions: plasma
[16] = Clearance in rat at 10 mg/kg, po; assay type: ADME, organism-based; design: dose 10 mg/kg, route oral; conditions: in vivo
Mus musculus [17] = experiment: Antiobesity activity in DIO C57BL/6 mouse assessed as decrease in body weight gain at 30 mg/kg, po qd (reference value: 2.06 +/- 0.33 g); assay type: functional
Mus musculus [18] = experiment: Hepatotoxicity in DIO C57BL/6 mouse assessed as plasma ALT level at 10 mg/kg, po qd after 10 days (reference value: 58 +/- 5 U/L); assay type: toxicity, organism-based; design: dose 10 mg/kg, route oral; conditions: in vivo, 240 h
[19] = Half life in rat at 10 mg/kg, po; assay type: ADME, organism-based; design: dose 10 mg/kg, route oral; conditions: in vivo
Mus musculus [20] = experiment: Hepatotoxicity in DIO C57BL/6 mouse assessed as plasma AST level at 10 mg/kg, po qd after 10 days (reference value: 99 +/- 9 U/L); assay type: toxicity, organism-based; design: dose 10 mg/kg, route oral; conditions: in vivo, 240 h
[21] = Cmax in DIO mouse at 30 mg/kg, po; assay type: ADME, organism-based; design: dose 30 mg/kg, route oral; conditions: in vivo
[22] = Half life in rat at 2 mg/kg, iv; assay type: ADME, organism-based; design: dose 2 mg/kg, route intravenous; conditions: in vivo
[23] = AUC (24 hrs) in DIO mouse at 30 mg/kg, po; assay type: ADME, organism-based; design: time < 24 hr, dose 30 mg/kg, route oral; conditions: plasma
Mus musculus [24] = experiment: Antiobesity activity in po dosed DIO C57BL/6 mouse assessed as decrease in body weight gain administered as qd/bid; assay type: functional, organism-based

SMILES: CC(=O)N1CCc2nc(NC(=O)N3CCC(N4CCc5ccc(F)cc54)CC3)sc2C1
inhibition [1]: 46%

SMILES: O=C(Nc1nc2c(s1)CCCC2)N1CCC(N2CCc3ccc(F)cc32)CC1
pIC50 [2]: 7.12

SMILES: O=C(CO)N1CCc2nc(NC(=O)N3CCC(N4CCc5ccc(F)cc54)CC3)sc2C1
pIC50 [2]: 6.95

SMILES: Cc1csc(NC(=O)N2CCC(N3CCc4ccccc43)CC2)n1
pIC50 (Acyl-CoA desaturase 1): 6.82

SMILES: Cc1csc(NC(=O)N2CCC(n3ccc4ccccc43)CC2)n1
pIC50 (Acyl-CoA desaturase 1): 6.27

SMILES: CNC(=O)c1cccc(NC(=O)N2CCC(N3C(=O)Cc4ccccc43)CC2)c1
inhibition [1]: 7%

SMILES: O=C(Nc1nc2c(s1)COCC2)N1CCC(N2CCc3ccc(F)cc32)CC1
pIC50 [2]: 7.77

SMILES: O=C(Nc1nc2c(s1)CNCC2)N1CCC(N2CCc3ccc(F)cc32)CC1
pIC50 [2]: 7.80

SMILES: O=C1NCCn2nc(NC(=O)N3CCC(N4CCc5ccc(F)cc54)CC3)cc21
pIC50 [2]: 7.52 | pIC50 (Acyl-CoA desaturase 1): 7.74

SMILES: Cc1csc(NC(=O)N2CCC(c3noc4ccc(F)cc34)CC2)n1
AUC at 24 h [3]: 49.8 µg·h/mL | Activity (Mus musculus [4]): 41 U/L | half-life [5]: 3.1 h | pIC50 [2]: 7.27 | Activity (Mus musculus [6]): 102 U/L | bioavailability [7]: 36.9% | Activity (Mus musculus [8]): -0.69 g | Cmax [9]: 8800 ng/mL | Vd [10]: 0.19 L/kg | Activity (Mus musculus [11]): 68 U/L | Activity (Mus musculus [12]): 93 U/L | Cmax [13]: 9200 ng/mL | Activity (Mus musculus [14]): 0 g | AUC at 24 h [15]: 118 µg·h/mL | CL/F [16]: 0.5 mL/min/kg | Activity (Mus musculus [17]): 0.01 g | Activity (Mus musculus [18]): 57 U/L | half-life [19]: 6.3 h | Activity (Mus musculus [20]): 89 U/L | Cmax [21]: 14900 ng/mL | half-life [22]: 3.8 h | AUC at 24 h [23]: 169 µg·h/mL | Activity (Mus musculus [24]): Dose-dependent effect

SMILES: CNC(=O)c1cccc(NC(=O)N2CCC(c3c[nH]c4ccccc34)CC2)c1
inhibition [1]: 15%

SMILES: Cc1csc(NC(=O)N2CCC(N3CCc4ccc(F)cc43)CC2)n1
pIC50 [2]: 7.68

Further lines, results first:

pIC50 [2]: 6.97
SMILES: Cc1cnc(NC(=O)N2CCC(N3CCc4ccc(F)cc43)CC2)s1

pIC50 [2]: 7.74
SMILES: O=C(Nc1nc(CCO)cs1)N1CCC(N2CCc3ccc(F)cc32)CC1

pIC50 [2]: 6.69
SMILES: CNC(=O)c1cnc(NC(=O)N2CCC(N3CCc4ccc(F)cc43)CC2)s1

inhibition [1]: 20%
SMILES: CNC(=O)c1csc(NC(=O)N2CCC(N3CCc4ccc(F)cc43)CC2)n1

pIC50 [2]: 6.81
SMILES: O=C(Nc1ncc(CO)s1)N1CCC(N2CCc3ccc(F)cc32)CC1

pIC50 [2]: 7.31
SMILES: NC(=O)c1cnc(NC(=O)N2CCC(N3CCc4ccc(F)cc43)CC2)s1

pIC50 [2]: 8.22
SMILES: O=C(Nc1ncc(CCO)s1)N1CCC(N2CCc3ccc(F)cc32)CC1

pIC50 [2]: 7.38
SMILES: O=C(Nc1nc(CO)cs1)N1CCC(N2CCc3ccc(F)cc32)CC1

pIC50 [2]: 9.00 | pIC50 (Acyl-CoA desaturase 1): 7.85
SMILES: O=C(Nc1nc2c(s1)CC(O)CC2)N1CCC(N2CCc3ccc(F)cc32)CC1 (stereo not given)
